Results on eleven compounds are retold here after US12201592B2, “Combinations of IRS/STAT3 dual modulators and anti-cancer agents for treating cancer” (TYRNOVO LTD., priority 2015, dated 2025).

Where two headings read alike, the source gives them in different places. Where only a bound is given, the exact number is not on record here.

Assay [1] deals with Squamous Cell carcinoma of Head&Neck (SCCHN) tumor biopsy. Put plainly: PDX efficacy study, Erlotinib-resistant tumors (Example 2). Format: in vivo, NodScid mice.
The subject of assay [2] is Squamous Cell carcinoma of SCCHN tumor biopsy. To be noted: start 700-720 mm^3.
Experimental: Experimental system: Patient-derived xenograft (PDX) of Squamous Cell carcinoma of SCCHN tumor biopsy subcutaneous implanted into NRG mice.
• Implantation of SCCHN tumor biopsy graft (P11) into NRG mice for efficacy study: Eight months following implantation of SCCHN tumor biopsy graft (P1) described above, tumor cells (P11) were injected into 20 male mice NOD.Cg-Rag1tm1Mom Il2rgtm1Wj1/SzJ mice (Common name: NRG), from self-breeding, using the same procedure described for implantation of P1. […] All treatments initiated simultaneously on day 0.
Treatment groups included: • 1. Vehicle-control: 20% HPbCD 50 μl/injection, IV (3 times/week, qod), 4 mice. • 2. […] Erlotinib 100 mg/kg in HPbCD, PO (5 times/week), 5 mice. • 4.
The length (l) and the width (w) of the tumors were measured 4 times a week and the volumes of the tumors were calculated as follows: v=lw^2/2. […] Mice weight and behavior were examined routinely.
Assay [3] deals with Squamous Cell carcinoma of Head&Neck (SCCHN) tumor biopsy. Put plainly: PDX efficacy study, acquired resistance to Erlotinib (Example 1). To be noted: start ~80 mm^3.
Another assay has as its system Mel1617-BR. Put plainly: Cell proliferation and viability, methylene-blue staining. Format: cell-based. To be noted: Homo sapiens, 72 h, melanoma, 3 days exposure. The protocol:
(§1) All melanoma cells used and discussed in FIGS. 6-9 and table 1 are from human origin and bearing the mutated BRAF^600K/E.
(§2) Cells were grown in complete medium and treated with inhibitors one day following seeding. 72 hours later, the surviving cells were quantified by methylene blue staining or by WST-1 staining for nonadherent cells (Roche).
(§3) Cells were plated in 96-well plates in 5-10% FCS in medium; a day later exposed to various concentrations of compound A, compound D or OSI-906 and 3 days later stained with methylene-blue and the relative cell number was quantified.

The next assay concerns Mel1617-Pa. The assay is described as above. Format: cell-based. The following applies: Homo sapiens, 72 h, melanoma, 3 days exposure. The protocol: as §1, §2, §3
For the next assay, the system named is 451Lu-BR. The assay is described as above. The following applies: Homo sapiens, 72 h, melanoma, 3 days exposure. Format: cell-based. The protocol: (§4) All cell lines were obtained from the American Type Culture Collection. YUMAC, YURIF, YUSIK (all human melanoma, kindly provided by Prof. Ruth Halaban, Yale University, New Haven, Conn.) were cultured in OptiMEM containing 5% FCS. M571, M2068, M560n (all human melanoma, kindly provided by Dr. Michal Lotem, Hadassah Hospital, Jerusalem, Israel) were maintained in RPMI, DMEM and F12 (1:3:1) containing 10% FCS. 451-Lu (human melanoma) and 451-Lu-BR (PLX4032-resistant melanoma; ref. 32) were maintained in RPMI containing 5% FCS (media for resistant lines contained […] PLX4032). All media were supplemented with 100 U/mL penicillin and […] and all cells were grown at 37° C./5% CO2.
as §1, §2, §3

The test system of a further assay is 451Lu-Pa. The description is as above. Format: cell-based. To be noted: Homo sapiens, 72 h, melanoma, 3 days exposure. The protocol: as §4, §1, §2, §3
A further assay relates to HCT15. The assay is described as above. Format: cell-based. To be noted: Homo sapiens, HCT-15, 72 h; HCT15, colon cancer; 3 days exposure. The procedure: Cells were grown in complete medium and treated with inhibitors one day following seeding. 72 hours later, the surviving cells were quantified by methylene blue staining or by WST-1 staining for nonadherent cells (Roche). Cells were plated in 96-well plates in 5-10% FCS in medium; a day later exposed to various concentrations of compound A, compound D or OSI-906 and 3 days later stained with methylene-blue and the relative cell number was quantified.

Another assay concerns MM1S. The experiment in a line: Cell proliferation and viability. The following applies: Homo sapiens, MM1.S, 72 h, multiple myeloma, 3 days exposure. Format: cell-based. The procedure:
as §2, §3

For a further assay, the system named is HepG2. Put plainly: Cell proliferation and viability, methylene-blue staining. Format: cell-based. The following applies: Homo sapiens, 72 h; HepG2, hepatocarcinoma; 3 days exposure. The protocol: as §2, §3
The test system of the next assay is PC3. The description is as above. Format: cell-based. The following applies: Homo sapiens, PC-3, 72 h; PC3, prostate cancer; 3 days exposure. The protocol:
as §2, §3

The subject of assay [4] is pStat3 in A375, 451-Lu, Mel1617 cells. Put plainly: Immunoblot of basal and PLX4032-induced pStat3 in PLX4032-sensitive melanoma cells. The following applies: PLX4032 1 μM added 3-4 hr after the compounds (FIG. 7C-E, 8A). Format: cell-based, human. The procedure:
FIGS. 7A-7E. […] FIG. 7A. […] FIG. 7B. […] Cells from patients were grown in complete medium and immunoblotted as described above. […] Compounds A/D block the basal and the PLX4032-induced pStat3. Treatment of PLX4032-sensitive human melanoma A375 (C), 451-Lu (D) or Mel1617 (E) cells with 1 μM PLX4032 for 18-24 hr induces a dramatic increase in pStat3. Compounds A (FIG. 7C, D) or D (FIG. 7E) block both the basal and the PLX4032-induced pStat3. OSI-906, an ATP-competitive inhibitor of IGF1R, has no effect on pStat3.
(§5) • Cells were treated as indicated in FIGS. 6-9 and the corresponding figure legends, following overnight serum-starvation (unless indicated differently). When cells were treated with both PLX4032 and compounds A or D, PLX4032 was added 3-4 hr following the compounds. • Cells were lysed with boiling sample buffer (10% glycerol, 50 mmol/L Tris-HCl, pH 6.8, 3% SDS, and 5% 2-mercaptoethanol). Western blot analysis was conducted in 8% SDS-PAGE, using antibodies described below. • Aliquots of cell extracts containing equal amounts of protein were resolved by 8% SDS/PAGE and electroblotted onto nitrocellulose filters. The membranes were blocked with low-fat milk diluted 1:20 in TBST (NaCl/Tris containing 0.2% Tween-20) for 0.5 hr, incubated with Rabbit anti-phosphoY705-Stat3 antibody (Cell signaling cat #9131), Mouse anti-ERK-diphosphorylated-YT (Sigma Aldrich cat #M8159) or anti-PARP antibodies overnight at 4 C in 5% BSA in TBST containing 0.05% azid, washed extensively with TBST and then incubated with horseradish peroxidase-conjugated secondary antibodies for 45 min at room temperature in 5% BSA in TB ST. • Immunoreactive bands were visualized using enhanced chemiluminescence. Membranes were re-blotted with Mouse anti-Stat3 antibody (Transduction labs cat #21320) or with Rabbit anti AKT1/2 (Santa cruz cat #sc-8312) or Anti-Actin as described above. IV. Chemotaxis of Peripheral Blood Mononuclear Cells (PBMCs)

Assay [5] relates to phospho-Y705 Stat3 (pSTAT3) in melanoma A375 cells. Put plainly: Immunoblot of Stat3 Y705-phosphorylation in intact cells. Format: cell-based, human. To be noted: for IC50: Homo sapiens, A-375; for inhibition of Stat3 Y705-phosphorylation: 3 μM, 24 hr post treatment (FIG. 6E). The procedure: FIGS. 6A-6E. […] A. Human melanoma A375 cells were treated with the indicated concentrations of compounds A or D for 1.3 and 4.5 hr. Cells were lysed and immunoblotted with antibodies against phospho-Y705 Stat3 (pSTAT3) and Stat3. […] B. Cells were treated with 2 μM Compound A and lysed following the indicated times. C. A375 cells were treated with compound D for 4 hr, then washed with medium several times and lysed after 4, 24 and 48 hr of incubation without inhibitors.
as §5
(In general: Immunoblotting shows a protein as a band on a membrane.)

Assay [6] concerns pStat3 in 451-LU-BR, Mel1617-BR and patient cells M2068, M571. Put plainly: Immunoblot of pStat3 in BRAFi-resistant melanoma cells. Format: cell-based, human. The following applies: 451-LU-BR, Mel1617-BR, patient cells M2068 and M571 (FIG. 8A-C). The procedure:
FIGS. 8A-8D. […] FIG. 8C. […] FIG. 8D. Cells of various cancer types were treated with compound D for 4 hr in serum-free medium, and 20 hr in medium with or without 10% serum. Asterisks indicate 10 μM concentration for RPMI8226 and HepG2 cells.
as §5

The test system of the next assay is PBMCs. Put plainly: Chemotaxis of PBMCs towards medium of treated A375 cells. Format: cell-based, human. To be noted: medium taken 30 hrs after treatment; read 24 hrs later (FIG. 9A).
Assay [7] concerns Uteral AdenoSarcoma biopsy. Put plainly: PDX efficacy study with Afinitor, repeat (Example 5A). Format: in vivo, NodScid mice. The protocol: The experiment described in Example 4 was repeated in purchased mice from Harlan.
• 1. […] Afinitor 5 mg/kg PO, 4 times a week (17 mice). • 4.

Assay [8] deals with Uteral AdenoSarcoma biopsy. The experiment in a line: PDX efficacy study with Afinitor (Examples 4 and 5).
Experimental: Treatments and Procedures
Treatment groups included: • 1. Control: 20% HPbCD 50 ul IP, qod (6 mice). • 2. […] Afinitor 5 mg/kg PO, qod (15 mice). • 4. Afinitor 5 mg/kg PO (qod)+Compound D 70 mg/kg IV (qod), 6 mice. Afinitor was administered ˜4 hr following Compound D.
All treatments were initiated simultaneously on day0.
The length (l) and the width (w) of the tumors were measured every other day and the volumes of the tumors were calculated as follows: v=lw^2/2.
Following treatments described in phase I (example 4), the mice whose tumors reached the end point were sacrificed, and the following treatments were continued.
• 1. The Afinitor-responder group (group A, open squares) was administered with Afinitor 5 mg/kg PO, qd (8 mice). • 2. The combined treatment group (open circles) continued to get the Afinitor 5 mg/kg PO (qod)+Compound D 70 mg/kg IV (qod) treatment (6 mice). Afinitor was administered ˜4 hr following Compound D. Phase III:
The group was divided to two groups of 4 mice each which received the following treatments on day6 onwards: • The first continued to get Afinitor 5 mg/kg PO, qd (4 mice) • and the second got Afinitor 5 mg/kg PO (qod)+Compound D 70 mg/kg IV (qod) combined treatment (4 mice). Afinitor was administered ˜4 hr following Compound D.
Where [9] appears, read: FIG. 6D, read-out: IC50 of dose-dependent inhibition of pStat3.

Experimental for PBMCs: A375 cells were treated with the indicated concentrations of Compound A and washed twice with the medium 4 hrs after treatment where indicated (Wash). […] 10,000 PBMCs/well were added to the upper plate.
A375 cells were seeded in 96-well plates (6000 cells/well) and grown overnight. Cells were treated with Compound A and washed twice with the medium 4 hrs after treatment where indicated (Wash). […] 10,000 PBMCs/75 ul medium/well were added to the upper plate. […] Chemotaxis was examined 24 hrs later by Cell Titer Glo analysis of the lower plate.
Thus, it was tested whether treatment of tumor cells with IRS/Stat3 dual modulators may induce the recruitment of peripheral blood mononuclear cells towards the cancer cells. Human melanoma A375 cells were treated with increasing concentrations of compound A and washed twice with the medium 4 hrs post-treatment where indicated (Wash).

On to `C#Cc1cccc(Nc2ncnc3cc(OCCOC)c(OCCOC)cc23)c1` [Erlotinib], for which the “treated mice with tumor regression” value in assay [1] (Erlotinib 100 mg/kg PO, 14 out of 18 mice) was 78%. Also, the “acquired resistance / regrowth while on treatment” value in assay [1] (treatment from day 0, tumors ~70 mm^3) is “tumors developed resistance to Erlotinib after 1 week and aggressively progressed”; in [2], “tumors developed resistance to Erlotinib a week following treatment initiation and aggressively progressed”; in [3] (two weeks of treatment), “all the tumors developed resistance to Erlotinib and progressed aggressively”. Also, the “response of Erlotinib-resistant tumors, late treatment” value in assay [1] (tumors ~130 mm^3 on day 10, treatment from day 10) was “aggressively developed”. In addition, the “tumor response (tumor volume)” value in assay [2] was “their growth was halted and they regressed”; in [3] (Erlotinib 100 mg/kg PO, Compound D 70 mg/kg IV, two weeks), “significant tumor regression in all the treated mice”.
Regarding `C[C@]1(O)C[C@@H](c2nc(-c3ccc4ccc(-c5ccccc5)nc4c3)c3c(N)nccn32)C1` [OSI-906, reference compound], the IC50 (in general, the concentration that inhibits the measured activity by half) is greater than 3000 nM in the assay with Mel1617-BR; greater than 3000 nM in the assay with Mel1617-Pa; greater than 3000 nM in the assay on 451Lu-BR; greater than 3000 nM with 451Lu-Pa; greater than 3000 nM in the assay with HCT15; 200 nM in the assay on MM1S. Further, the IC50 with HepG2 is 8300 nM; in the assay on PC3, greater than 10000 nM. For the same compound, the “effect on basal and PLX4032-induced pStat3 levels” value in assay [4] is listed as “had no effect on pStat3 levels”.
In the case of `Oc1cc(CNC(=S)/C=C/c2cc(O)c(O)c(Br)c2)cc(O)c1O` [Compound A], the IC50 in the assay with Mel1617-BR was 300 nM; in the assay on Mel1617-Pa it was 300 nM; in the assay with 451Lu-BR it was roughly 700 nM; in the assay with MM1S it was 300 nM; with HepG2, 1000 nM; in the assay on PC3 it was 800 nM. The IC50 in [5] (A375 cells, 1.3 hr post-treatment (FIG. 6A), read-out: IC50 of inhibition of Stat3 phosphorylation (pStat3)) was roughly 2000 nM; in assay [5] (A375 cells, 3 hr later (4.5 hr treatment, FIG. 6A), read-out: IC50 of inhibition of Stat3 phosphorylation (pStat3)), less than 1000 nM; in assay [5] (setting [9]) it was less than 1000 nM. Also, in [4], the “effect on basal and PLX4032-induced pStat3 levels” value is “block both the basal and the PLX4032-induced levels of pStat3”. Besides, the “effect on Stat3 phosphorylation in PLX4032-resistant melanoma cells” value in assay [6] is reported as “block Stat3 phosphorylation completely”. For the same compound, in the assay on PBMCs, the “chemotaxis of PBMCs towards medium of treated A375 cells” value is listed as “dose dependent chemotaxis was detected”.
In the case of `O=c1c(O)cc2cnc(/C=C/c3cc(O)c(O)c(Br)c3)sc-2c1O` [IV-2], the “inhibition of Stat3 Y705-phosphorylation” value in assay [5] (A375 cells) is “Complete inhibition”.
On the same count and under the same terms, the value for `O=c1c(O)cc2cnc(/C=C/c3cc(O)c(O)c(I)c3)sc-2c1O` [IV-3] was “Complete inhibition”.
For `CO[C@H]1C[C@@H]2CC[C@@H](C)[C@@](O)(O2)C(=O)C(=O)N2CCCC[C@H]2C(=O)O[C@H]([C@H](C)C[C@@H]2CC[C@@H](OCCO)[C@H](OC)C2)CC(=O)[C@H](C)/C=C(\C)[C@@H](O)[C@@H](OC)C(=O)[C@H](C)C[C@H](C)/C=C/C=C/C=C/1C` [Afinitor, Everolimus], the responder mice in assay [7] (Afinitor 5 mg/kg PO, 4 times a week) is 14 out of 17; in assay [8] (phase I), “half of the group responded”. The “acquired resistance while on treatment” value in assay [7] (after one week of treatment) was “acquired resistance to Afinitor and aggressively progressed”. In [8] (Afinitor-responder group A (n=8)), the “average tumor size on day6” value was 590 mm^3. The “average tumor size on day5” value in assay [8] (Afinitor-responder group A (n=8), 125 mm^3 on day0) amounted to 37 mm^3. Moreover, the “increase of average tumor size” value in assay [8] (four days, start 130 mm^3, control 16-fold) is given as 5.5 fold. In addition, the “response of Afinitor-resistant tumors (phase III)” value in assay [8] (group A tumors, treatment from day 6 (FIG. 5B)) is recorded as “tumors significantly progressed”. For the same compound, the “effect on tumor growth” value in assay [8] (phase I, four days, Afinitor 5 mg/kg PO, Compound D 70 mg/kg IV) is reported as “growth inhibition of the tumors”. Moreover, the “tumor course while on treatment (phase II)” value in assay [8] (treatment from day0 (FIG. 5A)) is “all tumors developed resistance to Afinitor and aggressively progressed”.
Consider `N#C/C(=C\c1cc(O)c(O)c(I)c1)C(=S)NCc1cc(O)c(O)c(O)c1` [B], for which the IC50 in assay [5] (setting [9]) is 1000 nM.
Regarding `N#C/C(=C\c1cc(O)c(O)c(I)c1)c1ncc2cc(O)c(=O)c(O)c-2s1` [IV-1], the “inhibition of Stat3 Y705-phosphorylation” value in assay [5] (A375 cells) is recorded as “Complete inhibition”.
Regarding `Oc1cc(CNC(=S)/C=C/c2cc(O)c(O)c(I)c2)cc(O)c1O` [C], the IC50 in assay [5] (setting [9]) is less than 1000 nM.
With `O=c1c(O)cc2cnc(/C=C/c3ccc(O)c(O)c3Br)sc-2c1O` [IV-4], the “inhibition of Stat3 Y705-phosphorylation” value in assay [5] (A375 cells) is “Complete inhibition”.
Consider `N#C/C(=C\c1cc(O)c(O)c(Br)c1)C(=S)NCc1cc(O)c(O)c(O)c1` [F], for which the IC50 in [5] (setting [9]) was determined as 2000 nM.
